Test results from patent US5380724A, “Piperazine and homopiperazine derivatives, pharmaceutical compositions containing them and process for preparing same” (Gyogyszerkutato Intezet KFT, priority 1992, dated 1995).
pIC50: −log10 of the molar value.

Columns and labels:
[1] = test system: rat brain homogenate (ferrous ion dependent lipid peroxidation); experiment: ferrous ion dependent lipid peroxidation inhibitory activity on rat brain homogenate (thiobarbituric acid reactive substances); type: biochemical; conditions: Fe2+ dependent lipid peroxidation, TBARS
Protocol: 1. The ferrous ion dependent lipid peroxidation inhibitory activity was measured on rat brain homogenate by using the method descibed by J. M. Braughler et al., [J. Biol. Chem. 262, 10438 (1987)] and J. A. Buege and S. D. […] The IC50 value is defined as the concentration of a test substance which reduces by 50% the amount of the thiobarbituric acid reactive substances (chiefly malondialdehyde) considered to be a characteristic parameter of lipid peroxidation.

[2] = test system: NADPH dependent lipid peroxidation; experiment: inhibition of the NADPH dependent lipid peroxidation; type: biochemical
Protocol: 3. Inhibiton of the NADPH dependent lipid peroxidation was measured according to T. J. Player and A. A. Horton [J. Neurochem. 37, 422 (1981)] and Z. Duniec [Biochem. Pharmacol. 32, 2283 (1983)]. The IC50 values (expressed in micromols) of some compounds of the invention, further those of the reference compounds determined in this test are given in Table 3.

[3] = test system: ischemia induced weight increase of the small intestine; experiment: inhibition of ischemia induced weight increase of a definite section in the small intestine of rats; type: in vivo; conditions: Rattus norvegicus, 25 mg/kg oral
Protocol: 2. […] The percentage of inhibition observed after administration of a 25 mg/kg oral dose of the compounds of the invention or of the reference compounds is shown in Table 5.

[4] = test system: arachidonic acid (ferrous ion dependent peroxidation); experiment: inhibition of the ferrous ion dependent peroxidation of arachidonic acid; type: biochemical; conditions: Fe2+ dependent peroxidation of arachidonic acid
Protocol: 2. The inhibition of the ferrous ion dependent peroxidation of arachidonic acid was also measured by the method of J. M. Braughler et al. [J. Biol. Chem. 262, 10438 (1987)] and J. A. Buege and S. D. Aust [Methods in Enzymology 52, 302 (1978)]. The IC50 values (expressed in micromols) of some compounds of the invention, further those of the reference compounds determined in this test are shown in Table 2.

[5] = test system: acute brain injury; experiment: inhibition of acute brain injury of mice (improvement in the neurological state); type: in vivo; conditions: intravenous
Description: 1. […] 68, 456 (1988)]. The doses of the test compounds administered by the intravenous route and the percentage of improvement in the neurological state are summarized in Table 4.

[6] = acute toxicity in rats; type: in vivo; conditions: rat, in vivo, oral

pIC50 [1] | pIC50 [4] | SMILES | inhibition in vivo at 25 mg/kg [3] | other results
5.05 | – | OC(COc1cccc2ccccc12)CN1CCCN(c2cc(N3CCCC3)nc(N3CCCC3)n2)CC1 (stereo not drawn) [Example 23] | 52% | pIC50 [2]: 4.89
– | – | Nc1nc(N)c2nc(-c3ccc(NC(=O)CN4CCNCC4)cc3)c(N)nc2n1 [Example 55] | 47% | –
– | – | Nc1cc(N2CCCN(CC(O)COc3ccc4ccccc4c3)CC2)nc(N)n1 (stereo not drawn) [Example 25] | 35% | –
– | – | Nc1nc(N)c2nc(C(=O)N3CCN(C(c4ccccc4)(c4ccccc4)c4ccccc4Cl)CC3)c(N)nc2n1 [Example 16] | 45% | –
4.28 | – | C=CCCCCCCCCC(=O)N1CCN(c2cc(N)nc(N)n2)CC1 [Example 3, 1-(10-Undecenoyl)-4-(2,6-diamino-4-pyrimidinyl)-piperazine] | 31% | –
– | – | c1ccc(C(c2ccccc2)(c2ccccc2)N2CCCN(c3cc(N4CCCC4)nc(N4CCCC4)n3)CC2)cc1 [Example 11] | 57% | –
4.72 | – | OC(COc1ccc2ccccc2c1)CN1CCN(c2cc(N3CCCC3)nc(N3CCCC3)n2)CC1 (stereo not drawn) [Example 26] | 45% | pIC50 [2]: 4.23
– | – | O=c1[nH]ncc(N2CCN(C34CC5CC(CC(C5)C3)C4)CC2)c1Cl [Example 18, 1-(1-Adamantyl)-4-(4-chloro-3-oxo-2,3-dihydro-5-pyridazinyl)piperazine] | 31% | –
4.29 | – | Nc1cc(N2CCN(C(c3ccccc3)(c3ccccc3)c3ccccc3)CC2)nc(N)n1 [Example 9, 1-Trityl-4-(2,6-diamino-4-pyrimidinyl)piperazine] | 37% | –
– | 4.77 | Nc1nc(N)c2nc(-c3ccc(OCC(O)CN4CCN(C56CC7CC(CC(C7)C5)C6)CC4)cc3)c(N)nc2n1 (stereo not drawn) [Example 37, 6-[4-[3-[4-(1-Adamantyl)-1-piperazinyl]-2-hydroxypropoxy]phenyl]-2,4,7-triaminopteridine] | 35% | –
– | – | CCCCCCCCCCCCCCCCCCN1CCN(c2cc(N)nc(N)n2)CC1 [Example 4] | 46% | –
– | – | Nc1cc(N2CCN(CC(O)COc3ccc4ccccc4c3)CC2)nc(N)n1 (stereo not drawn) [Example 24] | 20% | –
4.03 | – | Nc1cc(N2CCN(CC(O)COc3cccc4ccccc34)CC2)nc(N)n1 (stereo not drawn) [Example 20, 1-[2-Hydroxy-3-(1-naphthyloxy)-propyl]-4-(2,6-diamino-4-pyrimidinyl)piperazine] | 28% | –
6.52 | < 4.30 | Cc1c(C)c2c(c(C)c1O)CCC(C)(CN1CCN(c3cc(N4CCCC4)nc(N4CCCC4)n3)CC1)O2 (stereo not drawn) [Example U78517F, 2-[[4-[2,6-di(1-pyrrolidinyl)-4-pyrimidinyl]-1-piperazinyl]methyl]-6-hydroxy-2,5,7,8-tetramethyl-3,4-dihydro-2H-1-benzopyrane, reference compound] | 20% | pIC50 [2]: 6.15; Improvement (in the neurological state) ([5]; 20 mg/kg): 31%
4.74 | – | Nc1cc(N2CCN(C(c3ccccc3)(c3ccccc3)c3ccccc3Cl)CC2)nc(N)n1 [Example 12] | 52% | Improvement (in the neurological state) ([5]; 10 mg/kg): 46%
– | – | Nc1cc(N2CCN(C(=O)COc3cccc4ccccc34)CC2)nc(N)n1 [Example 31, 1-[2-(1-Naphthyloxy)acetyl]-4-(2,6-diamino-4-pyrimidinyl)piperazine] | 79% | –
– | – | Nc1nc2nc(N3CCN(C(c4ccccc4)(c4ccccc4)c4ccccc4Cl)CC3)nc(N)c2nc1-c1ccccc1 [Example 15] | 32% | –

pIC50 [1] | pIC50 [4] | SMILES | inhibition in vivo at 25 mg/kg [3] | other results
4.89 | – | OC(COc1cccc2ccccc12)CN1CCN(c2cc(N3CCCC3)nc(N3CCCC3)n2)CC1 (stereo not drawn) [Example 22] | – | –
– | – | Nc1nc(N)c2nc(-c3ccc(OCC(O)CN4CCN(C(c5ccccc5)(c5ccccc5)c5ccccc5Cl)CC4)cc3)c(N)nc2n1 (stereo not drawn) [Example 39] | 34% | –
– | – | CCCCCCCCCCCCCCCCCC(=O)N1CCN(c2cc(N)nc(N)n2)CC1 [Example 7] | 34% | –
– | 4.92 | Nc1nc(N)c2nc(-c3ccc(NCC(O)CN4CCNCC4)cc3)c(N)nc2n1 (stereo not drawn) [Example 52] | 34% | –
4.92 | – | O=C1CCCc2cc(OCC(O)CN3CCCN(c4cc(N5CCCC5)nc(N5CCCC5)n4)CC3)ccc21 (stereo not drawn) [Example 30] | 42% | pIC50 [2]: 4.80
– | – | Nc1nc(N)c2nc(-c3ccc(NCCCN4CCNCC4)cc3)c(N)nc2n1 [Example 56, 6-[4-[3-(1-Piperazinyl)propylamino]phenyl]-2,4,7-triamino-pteridine] | 44% | –
5.15 | 5.70 | Cc1c(C)c2c(c(C)c1O)CCC(C)(CCCC(C)CCCC(C)CCCC(C)C)O2 (stereo not drawn) [α-tocopherol, reference compound] | – | pIC50 [2]: < 4.00; Improvement (in the neurological state) ([5]; 30 mg/kg): 97%
– | – | CCCCCCCCCCCCCCCCCC(=O)N1CCCN(c2cc(N3CCCC3)nc(N3CCCC3)n2)CC1 [Example 6] | 25% | –
4.70 | – | O=C(COc1cccc2ccccc12)N1CCN(c2cc(N3CCCC3)nc(N3CCCC3)n2)CC1 [Example 33, 1-[2-(1-Naphthyloxy)acetyl]-4-[2,6-di(1-pyrrolidinyl)-4-pyrimidinyl]piperazine] | 53% | –
– | 6.05 | CN(CC(O)CN1CCNCC1)c1ccc(-c2nc3c(N)nc(N)nc3nc2N)cc1 (stereo not drawn) [Example 53] | 56% | –
6.00 | < 4.00 | Cc1cc(C(C)(C)C)c(O)c(C(C)(C)C)c1 [BHT, 3,5-di(tert-butyl)-4-hydroxytoluene, reference compound] | – | pIC50 [2]: 5.70
– | 4.77 | Nc1nc(N)c2nc(-c3ccc(SCC(O)CN4CCNCC4)cc3)c(N)nc2n1 (stereo not drawn) [Example 54] | 56% | –
– | 4.42 | Nc1nc2nc(N3CCNCC3)nc(N)c2nc1-c1ccccc1 [Example 58, 1-(4,7-Diamino-6-phenyl-2-pteridinyl)piperazine] | – | –
– | 4.31 | Nc1nc2nc(N3CCN(C45CC6CC(CC(C6)C4)C5)CC3)nc(N)c2nc1-c1ccccc1 [Example 57, 1-(1-Adamantyl)-4-(4,7-diamino-6-phenyl-2-pteridinyl)piperazine] | – | –
4.52 | – | O=C(COc1cccc2ccccc12)N1CCCN(c2cc(N3CCCC3)nc(N3CCCC3)n2)CC1 [Example 36] | 24% | –
– | – | Nc1nc(N2CCNCC2)c2nc(-c3ccccc3)c(N)nc2n1 [Example 59, 1-(2,7-Diamino-6-phenyl-4-pteridinyl)piperazine] | 30% | –
– | 4.55 | Nc1nc(N)c2nc(-c3ccc(OCC(O)CN4CCCNCC4)cc3)c(N)nc2n1 (stereo not drawn) [Example 51] | – | –

SMILES | pIC50 [1] | pIC50 [4] | inhibition in vivo at 25 mg/kg [3] | other results
C[C@@H]1C[C@H]2[C@@H]3CCC4=CC(=O)C=C[C@]4(C)C3=CC[C@]2(C)[C@H]1C(=O)CN1CCN(c2cc(N3CCCC3)nc(N3CCCC3)n2)CC1 [Example U74006F, 21-[4-[2,6-di(1-pyrrolidinyl)-4-pyrimidinyl]-1-piperazinyl]-16α-methyl-pregna-1,4,9(11)-triene-3,20-dione, reference compound] | 4.41 | < 4.00 | 59% | pIC50 [2]: < 4.00; Improvement (in the neurological state) ([5]; 30 mg/kg): 77%; LD50 [6]: > 1000 mg/kg
